Test: RP-HPLC elution position of synthetic proET-1 peptides
Type: physicochemical
Settings: ACE-5 C4 300 Å, 5 µm, 4.6 × 250 mm, 1 ml/min, 0.1% TFA – 10% solvent B (80% CH3CN with 0.1% TFA) over 2 min, then 10–30% B over 50 min, 1 min fractions, absorbance at 280 nm and immunoassay
Experimental: Figure 2 Size exclusion chromatography of peptide precipitates from (A) EA.hy 926 and (B) A549 cell lines, (C) cation exchange chromatography of conditioned media from EA.hy 926, and HPLC characterisation of pro-ET-1 peptides from EA.hy 926 cells – (D) NT-proET-1, (E) ELDP and (F) CT-proET-1. (A) and (B) proendothelin-1 peptides from EA.hy 926 and A549 cell lines were subjected to size exclusion chromatography (column 1.6 × 100 cm, Sephadex G50 superfine) equilibrated at 4 °C with 0.1 M NaCl containing 0.01 M HCl. Fractions were subjected to immunoassay for ppET-1[42–50] (open circles) and ppET-1[93–102] (closed circles). Elution positions of adrenomedullin (ADM, M r 6029), big ET-1 (bET-1, M r 4283) and ET-1 (M r 2492) are indicated. […] ELDP (red columns) and CT-proET-1 (blue columns) were measured using immunoassays. […]
ProET-1 peptides were subjected to reverse phase HPLC on C4 silica (15 µm, 300 Å pore, 1 × 25 cm; Jupiter® Phenomenex) with gradient elution at 2 ml/min: 0.1% TFA – 15% solvent B (80% CH3CN with 0.1% TFA) over 2 min, followed by 15–60% B over 45 min. […] Synthetic peptides were used to characterise elution positions of NT-proET-1, ELDP and CT-proET-1 on this second HPLC system by monitoring absorbance at 280 nm and immunoassay of fractions. […]

elution position on RP-HPLC (fraction number): 45 fraction
Sequence: ALENLLPTKATDRENRCQCASQKDKKCWNFCQAGKELRAEDIMEKDWNNHKKGKDCSKLGKKCIYQQLVRGRKI (disulfide (positions not given here)) [ELDP]

Source: article PMC5503984, “Characterisation of preproendothelin-1 derived peptides identifies Endothelin-Like Domain Peptide as a modulator of Endothelin-1” (Scientific Reports, 2017)
